Measured values as given in PMC8742467, “Therapeutical interference with the epigenetic landscape of germ cell tumors: a comparative drug study and new mechanistical insights” (Clinical Epigenetics, 2022).

Test system: histone modifications in 2102EP cells
Test: Mass spectrometry analysis of histone modifications (Mod Spec)
Assay type: cell-based, Human
Method in brief: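 2102EP cells were treated for 16 h with EC50 concentrations of Quisinostat, JIB-04, Chaetocin, MZ-1, LP99, PRT4165 or GSK343, with DMSO as solvent control. After trypsin harvest, histones were extracted and analysed by mass spectrometry. Raw data were converted to z-scores.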

[1] = 2102EP cells, Mod Spec raw data
[2] = 2102EP, EC50, 16 h, vs solvent control

## Cn1cc(CNCC2CCN(c3ncc(C(=O)NO)cn3)CC2)c2ccccc21 [Quisinostat]
[1]
  H3: K79ME2, % of peptide pool: 5.702%
  H3: K79ME3, % of peptide pool: 13.4482%
  H3: K79UN, % of peptide pool: 61.9691%
  H3: K122AC, % of peptide pool: 0.1638%
  H3: K122UN, % of peptide pool: 99.8362%
  H3: Q19ME1, % of peptide pool: 0.00624%
  H3: Q19UN, % of peptide pool: 99.9938%
  H3: Q55ME1, % of peptide pool: 0.3096%
  H3: Q55UN, % of peptide pool: 99.6904%
  H3: R42ME2, % of peptide pool: 2.863%
  H3: R42UN, % of peptide pool: 97.1374%
  H3: R49ME2, % of peptide pool: 6.457%
  H3: R49UN, % of peptide pool: 93.5429%
  H3R2UN: K4AC, % of peptide pool: 0.2031%
  H3R2UN: K4ME1, % of peptide pool: 23.4933%
  H3R2UN: K4ME2, % of peptide pool: 0.2912%
  H3R2UN: K4ME3, % of peptide pool: 0.05363%
  H3R2UN: K4UN, % of peptide pool: 75.9587%
  H3R2UN: Q5ME1, % of peptide pool: 0.06645%
  H3R2UN: Q5UN, % of peptide pool: 99.9336%
  H3.1: K27AC, % of peptide pool: 8.049%
  H3.1: K27ME1, % of peptide pool: 45.2407%
  H3.1: K27ME2, % of peptide pool: 17.0794%
  H3.1: K27ME3, % of peptide pool: 2.551%
  H3.1: K27UN, % of peptide pool: 27.08%
  H3.1: K36AC, % of peptide pool: 0.2956%
  H3.1: K36ME1, % of peptide pool: 12.4481%
  H3.1: K36ME2, % of peptide pool: 50.5827%
  H3.1: K36ME3, % of peptide pool: 20.2944%
  H3.1: K36UN, % of peptide pool: 16.3791%
  H3.3: K27AC, % of peptide pool: 13.7879%
  H3.3: K27M, % of peptide pool: 0%
  H3.3: K27ME1, % of peptide pool: 42.1096%
  H3.3: K27ME2, % of peptide pool: 14.1824%
  H3.3: K27ME3, % of peptide pool: 5.8099%
  H3.3: K27UN, % of peptide pool: 24.1102%
  H3.3: K36AC, % of peptide pool: 4.027%
  H3.3: K36ME1, % of peptide pool: 9.936%
  H3.3: K36ME2, % of peptide pool: 52.9264%
  H3.3: K36ME3, % of peptide pool: 21.2958%
  H3.3: K36UN, % of peptide pool: 11.8156%
  H4: K5AC, % of peptide pool: 13.3396%
  H4: K5UN, % of peptide pool: 86.6604%
  H4: K8AC, % of peptide pool: 32.6787%
  H4: K8UN, % of peptide pool: 67.3213%
2102EP cells, Mod Spec raw data, histone H4 K12 acetylated
  H4: K12AC, % of peptide pool: 21.736 % of peptide pool
2102EP cells, Mod Spec raw data, histone H4 K12 unmodified
  H4: K12UN, % of peptide pool: 78.264 % of peptide pool
2102EP cells, Mod Spec raw data, histone H4 K16 acetylated
  H4: K16AC, % of peptide pool: 69.3546 % of peptide pool
2102EP cells, Mod Spec raw data, histone H4 K16 unmodified
  H4: K16UN, % of peptide pool: 30.6454 % of peptide pool
2102EP cells, Mod Spec raw data, histone H4 K20 acetylated
  H4: K20AC, % of peptide pool: 15.0365 % of peptide pool
2102EP cells, Mod Spec raw data, histone H4 K20 dimethylated
  H4: K20ME2, % of peptide pool: 57.6801 % of peptide pool
2102EP cells, Mod Spec raw data, histone H4 K20 monomethylated
  H4: K20ME1, % of peptide pool: 5.018 % of peptide pool
2102EP cells, Mod Spec raw data, histone H4 K20 trimethylated
  H4: K20ME3, % of peptide pool: 3.192 % of peptide pool
2102EP cells, Mod Spec raw data, histone H4 K20 unmodified
  H4: K20UN, % of peptide pool: 19.0735 % of peptide pool
[2]
  change of histone modifications of the expected mode of action (Mod Spec): strong accumulation of histone acetylation on histones H3 and H4
  off-target changes of histone modifications (Mod Spec): increase in histone methylation (H3K4me1, H3.3K27me3, H3K56me1, H4K20me1/3)
